These results are taken from ChEMBL document CHEMBL5331101, “Synthesis and evaluation of N-sulfonylpiperidine-3-carboxamide derivatives as capsid assembly modulators inhibiting HBV in vitro and in HBV-transgenic mice” (Eur J Med Chem, 2023).

Data set [1] has as its system Hepatitis B virus. As to the kind of experiment: Antiviral activity against HBV infected in human HePAD38 cells assessed as reduction in intracellular core HBV DNA level at 20 uM incubated for 6 days by qPCR analysis relative to control. The arrangement: scale not given: the % may be the effect or the level left. Format: functional. Particulars: time 6 day. In general terms: Quantitative PCR measures a nucleic acid by following its amplification.

For data set [2], the system named is Hepatitis B virus. The experiment in a line: Antiviral activity against HBV infected in human HePAD38 assessed as reduction on HBsAg level at 20 uM by ELISA analysis relative to control. It counts as functional. The arrangement: scale not given: the % may be the effect or the level left. (In general: In an ELISA, binding on a coated surface is turned into a signal by an enzyme label.)

Data set [3] has as its system Hepatitis B virus. As to the kind of experiment: Antiviral activity against HBV infected in human HePAD38 assessed as reduction on HBeAg level at 20 uM by ELISA analysis relative to control. It counts as functional. The arrangement: scale not given: the % may be the effect or the level left.
The subject of data set [4] is Hepatitis B virus. The experiment in a line: Antiviral activity against HBV infected in human HePAD38 assessed as reduction on HBeAg level at 25 nM by ELISA analysis relative to control. It counts as functional. The arrangement: scale not given: the % may be the effect or the level left.
The subject of data set [5] is Hepatitis B virus. The experiment in a line: Antiviral activity against HBV infected in human HePAD38 assessed as reduction on HBsAg level at 25 nM by ELISA analysis relative to control. It counts as functional. Further details: scale not given: the % may be the effect or the level left.
Data set [6] can be described thus: Cytotoxicity against human HepAD38 cells assessed as reduction in cell viability incubated for 6 days by CCK-8 assay. It counts as functional. Particulars: HePAD38, 144 h, time 6 day. On the technique in general: Tetrazolium dyes change colour on reduction, which living cells bring about.
The test system of data set [7] is Hepatitis B virus. The experiment in a line: Antiviral activity against HBV infected in human HePAD38 cells assessed as reduction in intracellular core HBV DNA level at 25 nM incubated for 6 days by qPCR analysis relative to control. It counts as functional. The arrangement: scale not given: the % may be the effect or the level left. Particulars: time 6 day.
The subject of data set [8] is Hepatitis B virus. The experiment in a line: Antiviral activity against HBV infected in human HePAD38 cells assessed as reduction of capsid associated HBV DNA. It counts as functional, organism-based.
The subject of data set [9] is Hepatitis B virus. As to the kind of experiment: Antiviral activity against wild type HBV infected in human HepG2 cells assessed as inhibition of viral replication. It counts as functional, organism-based.
For data set [10], the system named is Hepatitis B virus. The experiment in a line: Antiviral activity against ETV-resistant HBV infected in human HepG2 cells assessed as inhibition of viral replication. It counts as functional, organism-based.
A short description of data set [11]: Selectivity index, ratio of CC50 for cytotoxicity against human HepAD38 cells to EC50 for antiviral activity against HBV infected in human HePAD38 cells. It counts as toxicity, cell-based. Particulars: read-out: Ratio CC50/EC50.
In data set [12] the test system is Hepatitis B virus. The experiment in a line: Antiviral activity against HBV infected in human HePAD38 cells assessed as decay of viral capsid protein by agarose gel electrophoresis-based assay. It counts as functional, organism-based.
Data set [13] has as its system Hepatitis B virus. As to the kind of experiment: Antiviral activity against HBV infected in human HePAD38 cells assessed as decay of viral core protein by agarose gel electrophoresis-based assay. Format: functional, organism-based.
In data set [14] the test system is Hepatitis B virus. The experiment in a line: Antiviral activity against HBV infected in human HePAD38 cells assessed as reduction in intracellular core HBV DNA level at 5 uM incubated for 6 days by qPCR analysis relative to control. Format: functional. Further details: scale not given: the % may be the effect or the level left. Particulars: time 6 day.
Data set [15] concerns Hepatitis B virus. As to the kind of experiment: Antiviral activity against HBV infected in human HePAD38 assessed as reduction on HBeAg level at 5 uM by ELISA analysis relative to control. The arrangement: scale not given: the % may be the effect or the level left. Format: functional.
The subject of data set [16] is Hepatitis B virus. The experiment in a line: Antiviral activity against HBV infected in human HepAD38 cells assessed as effect on capsid morphology at 20 uM incubated for 3 to 7 days by transmission electron microscopy. Format: functional, organism-based. Particulars: time 3-7 day.
Data set [17] has as its system Hepatitis B virus. As to the kind of experiment: Antiviral activity against HBV infected in human HePAD38 assessed as reduction on HBsAg level at 5 uM by ELISA analysis relative to control. Format: functional. The arrangement: scale not given: the % may be the effect or the level left.
Data set [18] has as its target Core antigen (Hepatitis B virus) (UniProt Q03732). As to the kind of experiment: Modulation of capsid assembly in HBV infected in human HePAD38 cells assessed as inhibition of viral DNA replication at 5 uM incubated for 3 to 7 days by electron microscopic analysis. Format: cell-based. The conditions noted are these: filed as modulator, time 3-7 day.
Data set [19] relates to Hepatitis B virus. The experiment in a line: Antiviral activity against HBV infected in human HePAD38 assessed as reduction on HBsAg level at 2 uM by ELISA analysis relative to control. It counts as functional. The arrangement: scale not given: the % may be the effect or the level left.
Data set [20] has as its system Hepatitis B virus. As to the kind of experiment: Antiviral activity against HBV infected in human HePAD38 cells assessed as reduction in intracellular core HBV DNA level at 2 uM incubated for 6 days by qPCR analysis relative to control. It counts as functional. Particulars: time 6 day. Further details: scale not given: the % may be the effect or the level left.
The subject of data set [21] is Hepatitis B virus. The experiment in a line: Antiviral activity against HBV infected in human HePAD38 cells assessed as reduction in capsid formation at 2 uM measured for 6 days by agarose gel electrophoresis-based assay. Particulars: time 6.0 day. Format: functional, organism-based.
In data set [22] the test system is Hepatitis B virus. As to the kind of experiment: Antiviral activity against HBV infected in human HePAD38 assessed as reduction on HBeAg level at 2 uM by ELISA analysis relative to control. It counts as functional. The arrangement: scale not given: the % may be the effect or the level left.

A word on the CC50: it is the concentration giving 50% cytotoxicity. What is called EC50 is the concentration that produces a half-maximal response.

Active and inactive are the calls of the source. No cut-off for these calls is given here.

Sequence of Core antigen (Hepatitis B virus) (Q03732 as listed by the source): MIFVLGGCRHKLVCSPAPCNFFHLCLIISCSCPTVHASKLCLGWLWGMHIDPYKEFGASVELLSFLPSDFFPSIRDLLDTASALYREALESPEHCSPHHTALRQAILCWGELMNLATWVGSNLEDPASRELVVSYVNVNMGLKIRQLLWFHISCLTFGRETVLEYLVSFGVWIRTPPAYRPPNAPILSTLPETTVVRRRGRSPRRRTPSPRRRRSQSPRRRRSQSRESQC

For `COC(=O)c1c(S(=O)(=O)N2CCC[C@H](C(=O)Nc3ccc(F)c(Cl)c3)C2)c(C)n(C)c1C`, the results for the Activity in [1], in [2] and in [3] were 39.7%, 94% and 67.4%, respectively.

As to `C=C1[C@H](CO)[C@@H](O)C[C@@H]1n1cnc2c(=O)[nH]c(N)nc21` [ENTECAVIR ANHYDROUS], the figures for the Activity in data set [4], in data set [5] and in data set [7] were 93.4%, 93.7% and 3.1%, respectively. Further, the CC50 in data set [6] is over 0.5 µM. For the same compound, the EC50 in [8] came out at 3 nM; in [9], 270 nM; in [10] it was 340 nM. Besides, the selectivity ratio in data set [11] was over 155.

For the compound `CCOC(=O)c1c(S(=O)(=O)N2CCCC(C(=O)Nc3ccc(F)c(F)c3)C2)c(C)n(C)c1C` (stereo not drawn), the Activity came to 11.5% in [1], 96% in data set [2] and 27.2% in data set [3]. Besides, the result in data set [12] and in data set [13] was Active. Besides, in [6], the CC50 is over 100 µM. Further, the EC50 in data set [8] turned out to be 520 nM. The selectivity ratio in [11] was over 192.

As for `COC(=O)c1c(S(=O)(=O)N2CCC[C@H](C(=O)Nc3ccc(F)c(C)c3)C2)c(C)n(C(F)F)c1C`, the Activity was 9.6% in data set [1], 92.8% in data set [2] and 37.9% in data set [3]. Also, the outcome in data set [12] and in [13] was inactive. For the same compound, the CC50 in [6] is 59.2 µM. In [8], the concentration for a half-maximal effect (EC50) is 330 nM. Besides, in data set [11], the selectivity ratio stood at 179.

Consider `COC(=O)c1c(S(=O)(=O)N2CCC[C@H](C(=O)Nc3ccc(F)c(C#N)c3)C2)c(C)n(C)c1C`, for which the figures for the Activity in data set [1], in [2] and in data set [3] were 29.7%, 92.4% and 61.9%, respectively.

With `CCOC(=O)c1c(S(=O)(=O)N2CCCC(C(=O)Nc3ccc(F)c(Cl)c3)C2)c(C)n(CC)c1C` (stereo not drawn), the Activity was determined as 44.2% in data set [1], 98.2% in data set [2] and 66% in data set [3].

`CCOC(=O)c1c(S(=O)(=O)N2CCCC(C(=O)Nc3ccc(F)cc3F)C2)c(C)n(C)c1C` (stereo not drawn): the Activity in data set [1] worked out at 44.9%; in data set [2], 93.5%; in data set [3], 54%.

Turning to `COC(=O)c1c(S(=O)(=O)N2CCC[C@@H](C(=O)Nc3ccc(F)c(C)c3)C2)c(C)n(C)c1C`, the Activity came to 34.9% in [1], 100.5% in data set [2] and 62.2% in [3].

On to `COC(=O)c1c(C)[nH]c(C)c1S(=O)(=O)N1CCC[C@H](C(=O)Nc2ccc(F)c(C)c2)C1`, for which the Activity in data set [1] turned out to be 3.7%; in data set [2], 106.1%; in data set [3], 73.2%.

With `Cc1cc(NC(=O)c2cccc(S(=O)(=O)N[C@H]3CCOC3)c2)ccc1F`, the Activity is 5.8% in data set [14], 36.1% in [15] and 97% in [17]. The outcome in [12], in [16] and in data set [13] was inactive. Further, in data set [6], the CC50 was over 100 µM. In addition, in data set [8], the EC50 worked out at 270 nM. Besides, the selectivity ratio in [11] was over 370.

`Cc1c(C#N)c(S(=O)(=O)N2CCC[C@H](C(=O)Nc3ccc(F)c(Cl)c3)C2)c(C)n1C`: the Activity is listed as 11.1% in data set [1], 99.8% in data set [2] and 36% in data set [3]. Further, the outcome in data set [12] and in [13] was inactive. In addition, in [6], the CC50 was over 100 µM. Further, the EC50 in data set [8] is 4410 nM. The selectivity ratio in data set [11] is over 22.7.

As to `CCOC(=O)c1c(S(=O)(=O)N2CCCC(C(=O)Nc3ccc(F)c(Cl)c3)C2)c(C)n(C)c1C` (stereo not drawn), the Activity in data set [1] is reported as 11.8%; in data set [2], 94.4%; in data set [3], 27.1%. Moreover, the result in data set [12] and in data set [13] was Active.

As for `COC(=O)C1=C(C)NC(c2ncc(F)cc2F)=N[C@H]1c1ccc(F)cc1Cl`, the outcome in [18], in data set [12], in data set [13] and in data set [21] was Active. The CC50 in data set [6] was over 20 µM. Moreover, the Activity was determined as 88.5% in [19], 4.9% in data set [20] and 31.8% in data set [22]. The concentration for a half-maximal effect (EC50) in data set [8] was 50 nM.

In the case of `COC(=O)c1c(S(=O)(=O)N2CCC[C@H](C(=O)Nc3ccc(F)c(C)c3)C2)c(C)n(C)c1C`, the Activity was determined as 29.8% in data set [1], 97.3% in data set [2] and 54.6% in data set [3].

With `CCOC(=O)c1c(S(=O)(=O)N2CCCC(C(=O)Nc3ccc(F)cc3)C2)c(C)n(C)c1C` (stereo not drawn), the Activity in data set [1] was 53.4%; in data set [2] it was 86.6%; in data set [3], 62.4%.

In the case of `COC(=O)c1c(S(=O)(=O)N2CCO[C@H](C(=O)Nc3ccc(F)c(C)c3)C2)c(C)n(C)c1C`, the Activity in [1] is 39%; in data set [2], 88.2%; in [3] it was 59%.

Turning to `COC(=O)c1c(S(=O)(=O)N2CCC[C@H](C(=O)Nc3ccc(F)c(C)c3)C2)c(C)n(CC(C)=O)c1C`, the Activity was 38.2% in data set [1], 92.8% in [2] and 49.4% in data set [3].

`CCOC(=O)c1c(S(=O)(=O)N2CCC[C@H](C(=O)Nc3ccc(F)c(C)c3)C2)c(C)n(C2CC2)c1C`: the results for the Activity in data set [1], in data set [2] and in data set [3] were 7.7%, 91.6% and 41.6%, respectively. In addition, the outcome in [12] and in data set [13] was inactive. In addition, the CC50 in [6] was over 100 µM. For the same compound, the EC50 in data set [8] turned out to be 5870 nM. Besides, the selectivity ratio in data set [11] was over 17.
